Earlier results, collected in patent US8703739B2, “Intravascular indwelling catheter lock solution containing weak acid and container containing the same” (priority 2008, dated 2014).
Read-outs that look alike come from different tables or passages of the source.

Compound	Buffer pKa (first pKa)	Buffer pKa (second pKa)
O=C1O[C@H]([C@@H](O)CO)C(O)=C1O [ascorbic acid]	4.16	
O=C(O)CC(O)C(=O)O (stereo not drawn) [malic acid]	3.23	4.77
